Source: patent US7049314B2, “Cyclopentyl indole derivatives” (Bristol-Myers Squibb Company, priority 2002, dated 2006)

Target: T1, human serotonin transporters (Homo sapiens, UniProt P31645)
T1 construct: expressed in transfected cells
Test: Serotonin Transporter Binding Assay ([3H]-citalopram displacement, HEK-hSERT cell membranes)
Details: not given
Description: HEK-293 cells that stably express human serotonin transporters (HEK-hSERT cells) were grown at 37° C. in 5% CO2 as a monolayer in medium consisting of EMEM supplemented with 10% fetal bovine serum and G418 sulfate (500 μg/mL). To prepare membranes for radioligand binding experiments, cells were rinsed twice with phosphate-buffered saline (138 mM NaCl, 4.1 mM KCl, 5.1 mM Na2PO4, 1.5 mM […], 11.1 mM glucose, pH 7.4). Cells were transferred from plates to polypropylene tubes (16×100 mm), centrifuged at 1,200×g for 5 min and were frozen at −80° C. until assay. Following centrifugation, pellets were resuspended by homogenization in buffer consisting of 50 mM Tris (pH 7.7 at 25° C.), 120 mM NaCl and 5 mM KCl and then centrifuged at 32,000×g for 10 min. Following centrifugation, supernatants were discarded and pellets were resuspended in buffer consisting of 50 mM Tris (pH 7.4 at 25° C.), 150 mM NaCl and 5 mM KCl. Membrane homogenates (200 μl/plate) were incubated with 1 nM [^3H]-citalopram (specific activity=85 Ci/mMol) and increasing concentrations of test compounds for 1 hr at 25° C. in a total volume of 250 μl. The assay buffer consisted of 50 mM Tris (pH 7.4 at 25° C.), 120 mM NaCl and 5 mM KCl (pH 7.4 with conc. HCl). Plates were incubated for 1 hr at 25° C., then filtered through 0.5% PEI treated Whatman GF/B filters using a Brandel cell harvester. Filters were washed three times with 3 mL of ice-cold tris wash buffer. Non-specific binding was defined with 10 μM fluoxetine. Amount of radioligand bound in the presence and absence of competitor was analyzed by plotting (−)log drug concentration versus the amount of radioligand specifically bound. The midpoint of the displacement curve (IC50, nM), signifies the potency. Ki values were calculated using the method of Cheng and Prusoff (1973).

T1 sequence (P31645 whole entry): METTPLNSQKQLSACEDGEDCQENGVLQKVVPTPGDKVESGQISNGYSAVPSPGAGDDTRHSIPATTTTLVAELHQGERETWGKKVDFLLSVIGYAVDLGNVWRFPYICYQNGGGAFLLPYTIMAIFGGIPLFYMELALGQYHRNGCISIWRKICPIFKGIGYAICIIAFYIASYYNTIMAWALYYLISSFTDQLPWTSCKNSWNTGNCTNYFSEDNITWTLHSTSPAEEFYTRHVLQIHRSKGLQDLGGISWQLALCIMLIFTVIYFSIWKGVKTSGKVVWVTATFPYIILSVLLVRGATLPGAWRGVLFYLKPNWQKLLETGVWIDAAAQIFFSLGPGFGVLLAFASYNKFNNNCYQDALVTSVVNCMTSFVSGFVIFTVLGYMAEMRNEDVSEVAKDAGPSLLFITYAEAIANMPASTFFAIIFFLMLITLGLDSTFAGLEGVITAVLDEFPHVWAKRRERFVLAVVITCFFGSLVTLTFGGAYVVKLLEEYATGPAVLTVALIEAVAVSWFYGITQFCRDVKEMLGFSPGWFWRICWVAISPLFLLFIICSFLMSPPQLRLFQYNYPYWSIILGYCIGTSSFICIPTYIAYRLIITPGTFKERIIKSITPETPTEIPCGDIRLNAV

Row | Compound | Ki [nM]
1 | CCCNC1CCC(c2cn(C)c3ccc(C#N)cc23)C1 (stereo not drawn) [Compound 29, 1-Methyl-3-(3-propylamino-cyclopentyl)-1H-indole-5-carbonitrile] | < 1
2 | CCN(C)C1CCC(c2c[nH]c3ccc(F)cc23)C1 (stereo not drawn) [Compound 34, Ethyl-[3-(5-fluoro-1H-indol-3-yl)cyclopentyl]-methyl-amine] | 1 to 10
3 | CCN(CC)C1CCC(c2c[nH]c3ccc(F)cc23)C1 (stereo not drawn) [Compound 35, Diethyl-[3-(5-fluoro-1H-indol-3-yl)-cyclopentyl]-amine] | 5
4 | Fc1ccc2[nH]cc(C3CCC(N4CCCC4)C3)c2c1 (stereo not drawn) [Compound 36] | 1 to 10

Same assay, conditions: HEK-hSERT membranes, 1 nM [3H]-citalopram, 1 hr at 25° C.; read-out: SERT (binding Ki)

Row | Compound | Ki [nM]
5 | Cn1cc(C2CCC(N3CCCCC3)C2)c2cc(C#N)ccc21 (stereo not drawn) [Compound 25, 1-Methyl-3-(3-piperidin-1-yl-cyclopentyl)-1H-indole-5-carbonitrile] | < 1
6 | Cn1cc(C2CCC(N3CCOCC3)C2)c2cc(C#N)ccc21 (stereo not drawn) [Compound 26, 1-Methyl-3-(3-morpholin-4-yl-cyclopentyl)-1H-indole-5-carbonitrile] | < 1
7 | CN(Cc1ccccc1)C1CCC(c2cn(C)c3ccc(C#N)cc23)C1 (stereo not drawn) [Compound 27, 3-[3-(Benzyl-methyl-amino)-cyclopentyl]-1-methyl-1H-indole-5-carbonitrile] | < 1
8 | CN(CCc1ccccc1)C1CCC(c2cn(C)c3ccc(C#N)cc23)C1 (stereo not drawn) [Compound 28, 1-Methyl-3-[3-(methyl-phenethyl-amino)-cyclopentyl]-1H-indole-5-carbonitrile] | 1 to 10
9 | CCCN(CCC)C1CCC(c2cn(C)c3ccc(C#N)cc23)C1 (stereo not drawn) [Compound 30, 3-(3-Dipropylamino-cyclopentyl)-1-methyl-1H-indole-5-carbonitrile] | < 1
10 | CCn1cc(C2CCC(N(C)Cc3ccccc3)C2)c2cc(C#N)ccc21 (stereo not drawn) [Compound 31, 3-[3-(Benzyl-methyl-amino)-cyclopentyl]-1-ethyl-1H-indole-5-carbonitrile] | 1 to 10
11 | CCn1cc(C2CCC(N(C)C)C2)c2cc(C#N)ccc21 (stereo not drawn) [Compound 32, 3-(3-Dimethylamino-cyclopentyl)-1-ethyl-1H-indole-5-carbonitrile] | < 1
12 | CN(C)C1CCC(c2c[nH]c3ccc(F)cc23)C1 (stereo not drawn) [Compound 33] | < 1
13 | CN(C)[C@@H]1CC[C@H](c2c[nH]c3ccc(C#N)cc23)C1 [Compound 48, (1S,3R)-3-(3-dimethylaminocyclopentyl)-1H-indole-5-carbonitrile] | < 1
14 | CN(C)[C@H]1CC[C@H](c2c[nH]c3ccc(C#N)cc23)C1 [Compound 49, (1S,3S)-3-(3-dimethylaminocyclopentyl)-1H-indole-5-carbonitrile] | < 1
15 | CN(C)[C@H]1CC[C@@H](c2c[nH]c3ccc(C#N)cc23)C1 [Compound 50, (1R,3S)-3-(3-dimethylaminocyclopentyl)-1H-indole-5-carbonitrile] | < 1
16 | CN(C)[C@@H]1CC[C@@H](c2c[nH]c3ccc(C#N)cc23)C1 [Compound 51, (1R,3R)-3-(3-dimethylaminocyclopentyl)-1H-indole-5-carbonitrile] | < 1
17 | CN(C)[C@H]1CC[C@H](c2c[nH]c3ccc(F)cc23)C1 [Compound 52, (1S,3S)-3-(5-fluoro-1H-indol-3-yl)-cyclopentyl-dimethylamine] | 1 to 10
18 | CN(C)[C@@H]1CC[C@H](c2c[nH]c3ccc(F)cc23)C1 [Compound 53, (1R,3S)-3-(5-fluoro-1H-indol-3-yl)-cyclopentyl-dimethylamine] | < 1
19 | CN(C)[C@@H]1CC[C@@H](c2c[nH]c3ccc(F)cc23)C1 [Compound 54, (1R,3R)-3-(5-fluoro-1H-indol-3-yl)-cyclopentyl-dimethylamine] | 1 to 10
20 | CN(C)[C@H]1CC[C@@H](c2c[nH]c3ccc(F)cc23)C1 [Compound 55, (1S,3R)-3-(5-fluoro-1H-indol-3-yl)-cyclopentyl-dimethylamine] | 1 to 10
21 | CCn1cc([C@H]2CC[C@@H](N(C)C)C2)c2cc(C#N)ccc21 [Compound 56, (1S,3R)-3-(3-Dimethylamino-cyclopentyl)-1-ethyl-1H-indole-5-carbonitrile] | < 1
22 | CCn1cc([C@H]2CC[C@H](N(C)C)C2)c2cc(C#N)ccc21 [Compound 57, (1S,3S)-3-(3-Dimethylamino-cyclopentyl)-1-ethyl-1H-indole-5-carbonitrile] | 1 to 10
23 | CCn1cc([C@@H]2CC[C@H](N(C)C)C2)c2cc(C#N)ccc21 [Compound 58, (1R,3S)-3-(3-Dimethylamino-cyclopentyl)-1-ethyl-1H-indole-5-carbonitrile] | < 1
24 | CCn1cc([C@@H]2CC[C@@H](N(C)C)C2)c2cc(C#N)ccc21 [Compound 59, (1R,3R)-3-(3-Dimethylamino-cyclopentyl)-1-ethyl-1H-indole-5-carbonitrile] | 1 to 10

Target: T2, human norepinephrine transporters (Homo sapiens, UniProt P23975)
T2 construct: host or cells: MDCK cells (also 'HEK-hNET cells'), membrane homogenates
Test: Norepinephrine Transporter Binding Assay ([3H]-nisoxetine displacement, hNET cell membranes)
Details: 2.7 nM [3H]-nisoxetine, 1 hr at 4° C., read-out: NE Reuptake (binding Ki)
Description: MDCK cells that stably express human norepinephrine transporters (HEK-hNET cells) were supplied by Receptor Biology, Inc. Pellets were resuspended by homogenization in buffer consisting of 50 mM Tris (pH 7.4 at 25° C.), 120 mM NaCl and 5 mM KCl. Membrane homogenates (200 μl/well, 8 ug protein) were incubated with 2.7 nM [^3H]-nisoxetine (specific activity=80 Ci/mMol) and increasing concentrations of test compounds for 1 hr at 4° C. in a total volume of 250 μl. The assay buffer consisted of 50 mM Tris (pH 7.4 at 25° C.), 120 mM NaCl and 5 mM KCl (pH 7.4 with conc. HCl). Plates were incubated for 1 hr at 4° C., then filtered through 0.5% PEI treated Whatman GF/B filters using a Brandel cell harvester. Filters were washed three times with 3 mL of ice-cold tris wash buffer. Non-specific binding was defined with 10 μM desipramine. Amount of radioligand bound in the presence and absence of competitor was analyzed by plotting (−)log drug concentration versus the amount of radioligand specifically bound. The midpoint of the displacement curve (IC50, nM), signifies the potency. Ki values were calculated using the method of Cheng and Prusoff (1973).

T2 sequence (P23975 whole entry): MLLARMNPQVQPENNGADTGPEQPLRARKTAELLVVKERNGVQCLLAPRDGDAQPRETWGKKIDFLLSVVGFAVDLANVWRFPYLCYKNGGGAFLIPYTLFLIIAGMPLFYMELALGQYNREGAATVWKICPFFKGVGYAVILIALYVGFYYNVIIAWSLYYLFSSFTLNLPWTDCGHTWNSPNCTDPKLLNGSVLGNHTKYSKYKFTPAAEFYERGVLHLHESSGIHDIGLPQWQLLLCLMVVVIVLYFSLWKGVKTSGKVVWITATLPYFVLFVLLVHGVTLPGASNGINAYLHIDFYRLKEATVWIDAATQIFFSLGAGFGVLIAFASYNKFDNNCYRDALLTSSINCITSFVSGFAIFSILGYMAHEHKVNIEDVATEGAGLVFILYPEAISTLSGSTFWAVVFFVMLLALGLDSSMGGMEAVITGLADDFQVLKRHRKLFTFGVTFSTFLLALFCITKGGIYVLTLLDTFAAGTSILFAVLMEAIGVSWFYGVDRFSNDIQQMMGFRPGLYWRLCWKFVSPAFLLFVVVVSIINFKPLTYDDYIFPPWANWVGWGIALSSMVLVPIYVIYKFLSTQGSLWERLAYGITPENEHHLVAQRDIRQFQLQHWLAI

Row | Compound | Ki [nM]
25 | Cn1cc(C2CCC(N3CCCCC3)C2)c2cc(C#N)ccc21 (stereo not drawn) [Compound 25, 1-Methyl-3-(3-piperidin-1-yl-cyclopentyl)-1H-indole-5-carbonitrile] | > 1000
26 | Cn1cc(C2CCC(N3CCOCC3)C2)c2cc(C#N)ccc21 (stereo not drawn) [Compound 26, 1-Methyl-3-(3-morpholin-4-yl-cyclopentyl)-1H-indole-5-carbonitrile] | > 1000
27 | CN(Cc1ccccc1)C1CCC(c2cn(C)c3ccc(C#N)cc23)C1 (stereo not drawn) [Compound 27, 3-[3-(Benzyl-methyl-amino)-cyclopentyl]-1-methyl-1H-indole-5-carbonitrile] | > 1000
28 | CN(CCc1ccccc1)C1CCC(c2cn(C)c3ccc(C#N)cc23)C1 (stereo not drawn) [Compound 28, 1-Methyl-3-[3-(methyl-phenethyl-amino)-cyclopentyl]-1H-indole-5-carbonitrile] | 100 to 1000
29 | CCCNC1CCC(c2cn(C)c3ccc(C#N)cc23)C1 (stereo not drawn) [Compound 29, 1-Methyl-3-(3-propylamino-cyclopentyl)-1H-indole-5-carbonitrile] | > 1000
30 | CCCN(CCC)C1CCC(c2cn(C)c3ccc(C#N)cc23)C1 (stereo not drawn) [Compound 30, 3-(3-Dipropylamino-cyclopentyl)-1-methyl-1H-indole-5-carbonitrile] | > 1000
31 | CCn1cc(C2CCC(N(C)Cc3ccccc3)C2)c2cc(C#N)ccc21 (stereo not drawn) [Compound 31, 3-[3-(Benzyl-methyl-amino)-cyclopentyl]-1-ethyl-1H-indole-5-carbonitrile] | > 1000
32 | CCn1cc(C2CCC(N(C)C)C2)c2cc(C#N)ccc21 (stereo not drawn) [Compound 32, 3-(3-Dimethylamino-cyclopentyl)-1-ethyl-1H-indole-5-carbonitrile] | > 1000
33 | CN(C)C1CCC(c2c[nH]c3ccc(F)cc23)C1 (stereo not drawn) [Compound 33] | > 1000
34 | CCN(C)C1CCC(c2c[nH]c3ccc(F)cc23)C1 (stereo not drawn) [Compound 34, Ethyl-[3-(5-fluoro-1H-indol-3-yl)cyclopentyl]-methyl-amine] | > 1000
35 | CCN(CC)C1CCC(c2c[nH]c3ccc(F)cc23)C1 (stereo not drawn) [Compound 35, Diethyl-[3-(5-fluoro-1H-indol-3-yl)-cyclopentyl]-amine] | > 1000
36 | Fc1ccc2[nH]cc(C3CCC(N4CCCC4)C3)c2c1 (stereo not drawn) [Compound 36] | > 1000
37 | CN(C)[C@@H]1CC[C@H](c2c[nH]c3ccc(C#N)cc23)C1 [Compound 48, (1S,3R)-3-(3-dimethylaminocyclopentyl)-1H-indole-5-carbonitrile] | > 1000
38 | CN(C)[C@H]1CC[C@H](c2c[nH]c3ccc(C#N)cc23)C1 [Compound 49, (1S,3S)-3-(3-dimethylaminocyclopentyl)-1H-indole-5-carbonitrile] | > 1000
39 | CN(C)[C@H]1CC[C@@H](c2c[nH]c3ccc(C#N)cc23)C1 [Compound 50, (1R,3S)-3-(3-dimethylaminocyclopentyl)-1H-indole-5-carbonitrile] | > 1000
40 | CN(C)[C@@H]1CC[C@@H](c2c[nH]c3ccc(C#N)cc23)C1 [Compound 51, (1R,3R)-3-(3-dimethylaminocyclopentyl)-1H-indole-5-carbonitrile] | > 1000
41 | CN(C)[C@H]1CC[C@H](c2c[nH]c3ccc(F)cc23)C1 [Compound 52, (1S,3S)-3-(5-fluoro-1H-indol-3-yl)-cyclopentyl-dimethylamine] | > 1000
42 | CN(C)[C@@H]1CC[C@H](c2c[nH]c3ccc(F)cc23)C1 [Compound 53, (1R,3S)-3-(5-fluoro-1H-indol-3-yl)-cyclopentyl-dimethylamine] | > 1000
43 | CN(C)[C@@H]1CC[C@@H](c2c[nH]c3ccc(F)cc23)C1 [Compound 54, (1R,3R)-3-(5-fluoro-1H-indol-3-yl)-cyclopentyl-dimethylamine] | > 1000
44 | CN(C)[C@H]1CC[C@@H](c2c[nH]c3ccc(F)cc23)C1 [Compound 55, (1S,3R)-3-(5-fluoro-1H-indol-3-yl)-cyclopentyl-dimethylamine] | > 1000
45 | CCn1cc([C@H]2CC[C@@H](N(C)C)C2)c2cc(C#N)ccc21 [Compound 56, (1S,3R)-3-(3-Dimethylamino-cyclopentyl)-1-ethyl-1H-indole-5-carbonitrile] | > 1000
46 | CCn1cc([C@H]2CC[C@H](N(C)C)C2)c2cc(C#N)ccc21 [Compound 57, (1S,3S)-3-(3-Dimethylamino-cyclopentyl)-1-ethyl-1H-indole-5-carbonitrile] | > 1000
47 | CCn1cc([C@@H]2CC[C@H](N(C)C)C2)c2cc(C#N)ccc21 [Compound 58, (1R,3S)-3-(3-Dimethylamino-cyclopentyl)-1-ethyl-1H-indole-5-carbonitrile] | > 1000
48 | CCn1cc([C@@H]2CC[C@@H](N(C)C)C2)c2cc(C#N)ccc21 [Compound 59, (1R,3R)-3-(3-Dimethylamino-cyclopentyl)-1-ethyl-1H-indole-5-carbonitrile] | > 1000
